For 3 compounds, CC50, selectivity ratio and EC50 results are on record in ChEMBL document CHEMBL3621063, “Discovery of potent HIV-1 non-nucleoside reverse transcriptase inhibitors from arylthioacetanilide structural motif” (Eur J Med Chem, 2015).

Data set [1] is described as follows: Cytotoxicity against human MT4 cells. The format is cell-based.
Data set [2] is described as follows: Selectivity index, ratio of CC50 for human MT4 cells to EC50 for wild-type HIV-1 infected in human MT4 cells. Type of data set: toxicity, cell-based. The settings on record: uninfected and infected with wild-type HIV-1, read-out: Ratio CC50/EC50.
The nature of data set [3]: Selectivity index, ratio of CC50 for human MT4 cells to EC50 for HIV-1 harboring reverse transcriptase K103N/Y181C double mutant infected in human MT4 cells. The settings on record: read-out: Ratio CC50/EC50. The format is toxicity, cell-based.
For data set [4], the system named is Human immunodeficiency virus 1. Briefly: Antiviral activity against HIV-1 harboring reverse transcriptase K103N/Y181C double mutant infected in human MT4 cells. The format is functional, organism-based. Conditions: Human immunodeficiency virus 1, MT4.
Data set [5] concerns Human immunodeficiency virus 1. In words: Antiviral activity against wild-type HIV-1 infected in human MT4 cells. Type of data set: functional, organism-based. Conditions: Human immunodeficiency virus 1, MT4.
Data set [6] concerns Human immunodeficiency virus 1. Briefly: Antiviral activity against HIV-1 3B infected in human MT4 cells assessed as cell viability after 5 days by MTT assay. The format is functional, organism-based. Conditions: Human immunodeficiency virus 1, 3B, MT4, 120 h. (Formazan colour is commonly taken as a measure of viable cells.)

Molecules are shown by their SMILES. pEC50: −log10 of the molar value.

In the case of `O=C(CSc1nnsc1-c1cccc2ccccc12)Nc1ccccc1Br`, in data set [1], the CC50 (in general, the concentration that lowers cell viability or growth by half) was 172 µM. Further, the selectivity ratio in data set [2] worked out at 3920; in data set [3], 5. Besides, the pEC50 (usually −log10 of the EC50, conventionally taken in molar units) in data set [4] is 4.46; in data set [5], 7.36.

For `O=C(CSc1sc(Cl)nc1-c1ccc(Br)cc1Br)Nc1ccccc1[N+](=O)[O-]`, in data set [6], the negative-log EC50 (pEC50) is 5.68.

`O=C(CSc1nnsc1-c1cccc2ccccc12)Nc1cccnc1Cl`: half-maximal cytotoxicity in data set [1] (CC50) was put at 121 µM. Further, the selectivity ratio in data set [2] was determined as 6440; in data set [3], 24. In addition, the negative logarithm of the EC50 (pEC50) is 5.29 in data set [4] and 7.72 in data set [5].
